≈ marks a conversion by molar mass, not a printed value.

These results are taken from patent publication US12594249B2 (ThermoLife International, LLC, priority 2023, dated 2026).

The conditions of data set [1]: in vivo; cited from earlier work.
For data set [2] the following is noted: Lu et al. 2020, cited from earlier work.
The nature of data set [3]: solubility of 2 g in 200 ml saturated citric acid solution (pH=3), filtration, visual. The settings on record: for appearance of liquid that passed through the filter: 2 grams in 200 ml saturated citric acid solution. The source says:
The resulting acidic solution was then passed out by a filter. […]

The conditions of data set [4]: standard conditions; cited from earlier work.
The nature of data set [5]: dissolution of 1 g powder in 100 ml water, visual, with and without stirring, centrifugation and filtration. The settings on record: for appearance of filtrate / solid left on the filter paper: centrifuged at 1000 rpm for 10 seconds, filtered; for visible dissolution in water without stirring: not stirred, one minute (phenoxide), 10 minutes (curcumin); for solubility in water (visual): FIG. 6 (0.5 g in 50 ml), FIGS. 7 and 8 (1 g in 100 ml).

In data set [6] the test system is exercise capacity and recovery. As to the kind of experiment: case report: exercise performance and recovery of a subject who regularly trains (treadmill, arm curls test, soreness). The data set is classed as in vivo, human. To be noted: for arm curls test: maximum number of bicep curl repetitions in 30 seconds: 40 lb dumbbell; for arm curls test: maximum number of bicep curl repetitions in 30 seconds / time to exhaustion on the treadmill: 1 gram doses the day/night before and 1 hour before training; for time to recovery (measured by muscle soreness and discomfort): after training; for time to exhaustion on the treadmill: Ifit treadmill, 0 elevation, 5 miles per hour.

The subject of data set [7] is chronic knee and shoulder pain. As to the kind of experiment: case report: oral ingestion by a person with chronic knee and shoulder pain. Type of data set: in vivo, human. To be noted: 1 gram twice per day.

Take `COc1cc(/C=C/C(=O)CC(=O)/C=C/c2ccc(O)c(OC)c2)ccc1O` [curcumin]: the half-life in data set [1] is about 7 h. In addition, the “solubility in Phosphate buffer” value in data set [2] (Phosphate buffer) is 0.310 µg/mL (≈ 0.842 µM). For the same compound, in data set [2] (water), the solubility in water is 1.622 µg/mL (≈ 4.4 µM). In data set [3], the “appearance of liquid that passed through the filter” value was “totally clear”. Further, the solubility in ethanol in data set [4] was 1000 µg/mL (≈ 2710 µM). In data set [5] (1 g in 100 ml water), the appearance of filtrate result is “clear and lacked color”; the “solid left on the filter paper” value is “all of the curcumin powder was left on the filter paper”; the “visible dissolution in water without stirring” value is recorded as “no visible sign of curcumin dissolving in water”. Also, in data set [5] (1 g in 100 ml water, stirring 1200 rpm), the “solubility in water with stirring” value is on record as “no solubility even with stirring”. Moreover, in data set [5], the “solubility in water (visual)” value is “low solubility”. Also, in data set [6], the “arm curls test: maximum number of bicep curl repetitions in 30 seconds” value is 11 repetitions. For the same compound, in data set [6] (person), the “effect on exercise capacity and recovery (summary)” value was “no effect”; the “time to recovery (measured by muscle soreness and discomfort)” value is 2 days; the “time to exhaustion on the treadmill” value is 13 min.
As for `COc1cc(/C=C/C(=O)/C=C(O)/C=C/c2ccc(O)c(OC)c2)ccc1O.N.N` [ammonium phenoxide of curcumin], in data set [7], the “onset of improvement in symptoms” value is listed as “on the second day”. In addition, the “pain reduction during the next 30 days” value in data set [7] (30 days) is recorded as “continued showing improvement”. Moreover, the “appearance of liquid that passed through the filter” value in data set [3] is listed as “characteristic orange color of curcumin”. The “solubility at acidic pH (conclusion)” value in data set [3] (saturated citric acid solution) is on record as “increased solubility”. Besides, in data set [5] (1 g in 100 ml water), the appearance of filtrate result is on record as “the color of curcumin”, the “solid left on the filter paper” value is “no solid matter was left on the filter paper” and the “visible dissolution in water without stirring” value was “visible at one minute”. Besides, the “time for all 1 gram to be dissolved in 100 ml of water” value in data set [5] (stirring at 1200 rpm with a magnetic stirrer) is “less than 10 seconds”. In data set [5], the “solubility in water (visual)” value is given as “a lot more water-soluble”. In data set [6], the “arm curls test: maximum number of bicep curl repetitions in 30 seconds” value is recorded as 14 repetitions. For the same compound, in data set [6] (person), the “effect on exercise capacity and recovery (summary)” value is “increased their exercise capacity and reduced the needed time for recovery”; the “time to recovery (measured by muscle soreness and discomfort)” value is 1 days; the “time to exhaustion on the treadmill” value was determined as 15.5 min. Moreover, the “soreness the day after training” value in data set [6] (person, day after training) was “noticeably lower”.

By half-life is commonly meant the time needed for the level to fall by half in the phase considered.
